Measurements published in US4863949A, “Aminopropanol derivatives, processes for the preparation thereof, the use thereof and pharmaceutical compositions containing them” (Boehringer Mannheim GmbH, priority 1985, dated 1989).
Counter-ions that a name gives are not always drawn.

Tested on: livers
Assay: denitration rate in perfused rat livers relative to isosorbide-5-mononitrate (nitrate-like action)
Design: species or system rats
Settings: rat livers perfused 4 min, equimolar 5×10^-5 M/l; freed NO2 in perfusate; high = fast denitration

## CC(C)(CNC(=O)CCCO[N+](=O)[O-])NCC(O)COc1ccccc1C#N.O=C(O)/C=C/C(=O)O (stereo not shown) [2 (48.), 1-(2-cyanophenoxy)-3-[1,1-dimethyl-2-(4-nitroxybutanoylamino)-ethylamino]-propan-2-ol fumarate]
  Vrel (denitration rate in relation to isosorbide-5-mononitrate): 0,94

## O=C(CCCO[N+](=O)[O-])NCCNCC(O)COc1cccc2c1CC(=O)N2.O=C(O)/C=C/C(=O)O (stereo not shown) [2 (17.), 3-[2-(4-nitroxybutanoylamino)-ethylamino]-1-(2-oxoindolin-4-yloxy)-propan-2-ol fumarate]
  Vrel (denitration rate in relation to isosorbide-5-mononitrate): 0,75

## CC(=O)Oc1c(C)cc(OCC(O)CNC(C)(C)CNC(=O)CCCO[N+](=O)[O-])c(C)c1C.O=C(O)/C=C/C(=O)O (stereo not shown) [8 (15.), 3-[1,1-dimethyl-2-(4-nitroxybutanoylamino)-ethylamino]-1-(4-methylcarbonyloxy-2,3,5-trimethylphenoxy)-propan-2-ol fumarate]
  Vrel (denitration rate in relation to isosorbide-5-mononitrate): 1,19

## Cn1cnc2cccc(OCC(O)CNC(C)(C)CNC(=O)O[C@H]3CO[C@H]4[C@@H]3OC[C@H]4O[N+](=O)[O-])c21 (stereo partly shown) [Example 11, 3-[1,1-Dimethyl-2-[(5-O-nitroisosorbid-2-yloxy)-carbonylamino]-ethylamino]-1-(3-methylbenzimidazol-4-yloxy)-propan-2-ol fumarate]
  Vrel (denitration rate in relation to isosorbide-5-mononitrate): 1,23

## C=CCc1ccccc1OCC(O)CNC(C)(C)CNC(=O)CCCO[N+](=O)[O-] (stereo not shown) [2 (72.), 1-(2-allylphenoxy)-3-[1,1-dimethyl-2-(4-nitroxybutanoylamino)-ethylamino]-propan-2-ol cyclamate]
  Vrel (denitration rate in relation to isosorbide-5-mononitrate): 0,54

## Cc1ccc(Cl)c(OCC(O)CNC(C)(C)CNC(=O)CCCO[N+](=O)[O-])c1 (stereo not shown) [2 (46.), 1-(2-chloro-5-methylphenoxy)-3-[1,1-dimethyl-2-(4-nitroxybutanoylamino)-ethylamino]-propan-2-ol cyclamate]
  Vrel (denitration rate in relation to isosorbide-5-mononitrate): 0,97

## CC(CCC(=O)NCCNCC(O)COc1cccc2c1CC(=O)N2)O[N+](=O)[O-] (stereo not shown) [2 (29.), 3-[2-(4-nitroxypentanoylamino)-ethylamino]-1-(2-oxoindolin-4-yloxy)-propan-2-ol cyclamate]
  Vrel (denitration rate in relation to isosorbide-5-mononitrate): 0,86

## O=C(CCCO[N+](=O)[O-])NCCNCC(O)COc1cccc2[nH]ccc12 (stereo not shown) [2 (11.), 1-indol-4-yloxy)-3-[2-(4-nitroxybutanoylamino)-ethylamino]-propan-2-ol hemifumarate]
  Vrel (denitration rate in relation to isosorbide-5-mononitrate): 0,95

## O=C(CCCCO[N+](=O)[O-])NCCNCC(O)COc1cccc2c1CC(=O)N2 (stereo not shown) [2 (31.), 3-[2-(5-nitroxypentanoylamino)-ethylamino]-1-(2-oxoindolin-4-yloxy)-propan-2-ol hemifumarate]
  Vrel (denitration rate in relation to isosorbide-5-mononitrate): 0,66

## O=[N+]([O-])O[C@@H]1CO[C@H]2[C@@H]1OC[C@@H]2O [Isosorbide-5-mononitrate, isosorbide-5-mononitrate, reference compound]
  Vrel (denitration rate in relation to isosorbide-5-mononitrate): 0,86
